Read-outs that look alike come from different tables or passages of the source.
Assays:
[1] = molecular target: T1, CHO cells that overexpress TRPV1 (CHO-TRPV1) (Homo sapiens, UniProt Q8NER1); test: Calcium imaging, CHO-TRPV1; assay type: cell-based; conditions: for TRPV1 activation (calcium influx), CHO-TRPV1: polygodial 80 μM, P10 4 μM, P3 50 μM
T1 construct: expressed in transfected cells; host or cells: CHO cells
Method: CHO cells that overexpress TRPV1 (CHO-TRPV1) were treated with polygodial (80 μM), P10 ([…]), or P3 (50 μM) and calcium influx was measured. Cells were also pre-treated with the TRPV1 antagonist capsazepine (CPZ; 10 μM) to determine if calcium influx via TRPV1 was inhibited. 3 μM ionomycin was used as a positive control. Fluo-4 Direct Calcium Assay Kit and Sweptfield confocal with Nikon Ti were used to visualize calcium influx and the images were analyzed using ImageJ software.

[2] = molecular target: T2, vanilloid site of TRPV1 receptor from rats spinal cord membranes (Rattus norvegicus, UniProt O35433); test: [3H]-resiniferatoxin binding assay; conditions: 2 nM [3H]-RTX
T2 construct: from tissue; host or cells: rat spinal cord membranes
T2 sequence (O35433 whole entry): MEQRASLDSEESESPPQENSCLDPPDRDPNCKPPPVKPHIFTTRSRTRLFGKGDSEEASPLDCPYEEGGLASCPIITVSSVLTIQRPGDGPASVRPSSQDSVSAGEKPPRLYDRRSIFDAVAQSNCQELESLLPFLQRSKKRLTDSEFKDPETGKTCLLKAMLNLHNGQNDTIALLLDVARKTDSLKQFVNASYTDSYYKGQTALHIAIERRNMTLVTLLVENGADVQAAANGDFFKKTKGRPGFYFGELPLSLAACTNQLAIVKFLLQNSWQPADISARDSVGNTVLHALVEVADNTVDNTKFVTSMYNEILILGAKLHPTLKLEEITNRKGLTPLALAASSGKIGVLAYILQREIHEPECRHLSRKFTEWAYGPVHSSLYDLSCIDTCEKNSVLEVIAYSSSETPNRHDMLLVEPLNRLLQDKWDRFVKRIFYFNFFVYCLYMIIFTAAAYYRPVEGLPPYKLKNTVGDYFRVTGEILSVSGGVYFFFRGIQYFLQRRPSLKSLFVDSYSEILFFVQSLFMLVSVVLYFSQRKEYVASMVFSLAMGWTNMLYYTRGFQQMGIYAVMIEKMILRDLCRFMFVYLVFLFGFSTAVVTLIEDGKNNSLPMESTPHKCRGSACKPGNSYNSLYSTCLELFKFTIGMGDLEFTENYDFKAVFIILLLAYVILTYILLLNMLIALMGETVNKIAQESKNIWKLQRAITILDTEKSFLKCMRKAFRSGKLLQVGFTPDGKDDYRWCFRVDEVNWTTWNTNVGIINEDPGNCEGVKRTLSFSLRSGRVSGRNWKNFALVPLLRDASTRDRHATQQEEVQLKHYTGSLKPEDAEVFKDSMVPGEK
Method: To evaluate the possible affinity of different analogues to the vanilloid site of TRPV1, a [^3H]-resiniferatoxin ([^3H]-RTX) binding assay was performed as previously described (Galli et al. 2004 and Lee et al., 2006). Briefly, rats spinal cord were homogenized in buffer A (pH 7.4, 5 mM KCl, 5.8 mM NaCl, 2 mM MgCl2, 0.75 mM CaCl2, 137 mM sucrose, and 10 mM HEPES) and centrifuged for 10 minutes at 1000 g at 4° C. and the supernatant was further centrifuged for 30 min at 35,000 g at 4° C. The resulting pellets were than resuspended in buffer A and frozen until assayed. The binding reaction was performed in a final volume of 500 μL, containing buffer A (plus 0.25 mg/mL bovine serum albumin, BSA), membranes (0.5 mg/mL), and 2 nM [^3H]-RTX in the presence or absence of analogues of 1 (10 μM). For the measurement of the nonspecific binding, 100 μM nonradioactive RTX were included used. The reaction was started by incubating tubes at 37° C. during 60 minutes, and stopped by transferring the tubes to ice bath and adding 100 μg of bovine α1-acid glycoprotein (to reduce nonspecific binding). […] The pellet was used to quantify the scintillation counting. The specific binding was calculated as the difference of the total and nonspecific binding and the results were measured as % of specific binding.

[3] = test system: panel of cancer cell lines (A549, SKMEL-28, MCF-7, U373, Hs683); test: MTT antiproliferative assay, panel of five cancer cell lines; assay type: cell-based, human; conditions: for GI50: mean over five cell lines, 72 h treatment, MTT assay, read-out: GI50 in vitro values, Mean + SEM
Method: (§1) Antiproliferative properties of the synthesized compounds were evaluated by the MTT assay. All compounds were dissolved in DMSO at a concentration of either 100 μM or 50 μM prior to cell treatment. The cells were trypsinized and seeded at various cell concentrations depending on the cell type. The cells were grown for 24 h to 72 h, treated with compounds at concentrations ranging from 0.001 to 100 μM and incubated for 48 or 72 h in 100 or 200 μL media depending on the cell line used. The number of experiments and replicates varied depending on the cell line. Cells treated with 0.1% DMSO were used as a negative control; 1 μM PAO was used as a positive control.
(§2) The synthesized C12-Wittig derivatives were evaluated for antiproliferative activities in a panel of cancer cell lines that included apoptosis-resistant human U373 glioblastoma (GBM) (Lefranc et al., 2013), human A549 non-small cell lung cancer (NSCLC) and human SKMEL-28 melanoma (Mathieu et al., 2009) as well as apoptosis-sensitive human Hs683 anaplastic oligodendroglioma (Lefranc et al., 2013) and human MCF-7 breast cancer (Frolova et al., 2013).

[4] = test system: human U373 glioblastoma (GBM); test: MTT antiproliferative assay, U373; assay type: cell-based; conditions: 72 h treatment, sextuplicates, read-out: GI50 in vitro values, U373
Method: Human mammary carcinoma MCF-7 (ATCC HTB22) cells were cultured in RPMI supplemented with 10% FBS. The U87 cells (ATCC HTB-14) were cultured in DMEM culture medium, while the A549 cells (DSMZ ACC107) were cultured in RPMI culture medium supplemented with 10% heat-inactivated FBS. The GBM Hs683 (ATCC HTB-138) cells were cultivated in DMEM supplemented with 10% FBS. The human uterine sarcoma MES-SA (ATCC CRL1966) and MES-SA/D×5 cells were cultured in RPMI-1640 medium supplemented with 10% FBS with MES SA/D×5 maintained in the presence of 500 nM Doxorubicin (Sigma). SKMEL-28 cells (ATCC HTB72) and U373 GBM cells (ECACC 08061901) were cultured in RPMI culture medium supplemented with 10% heat-inactivated FBS. Cell culture media were supplemented with 4 mM glutamine (Lonza code BE17-605E), 100 μg/mL gentamicin (Lonza code 17-5182), and penicillin-streptomycin (200 units/ml and 200 μg/ml) (Lonza code 17-602E). The MDA-MB-231 (ATCC HTB-26) epithelial mammary adenocarcinoma cells were cultured in Eagle's minimum essential medium (EMEM; Invitrogen) containing 5% fetal calf serum (FCS, Cambrex), 2 mM L-glutamine (Invitrogen), 0.06% HEPES (Invitrogen) and penicillin (50 IU/ml)/streptomycin (50 µg/ml; Invitrogen) at 37° C. in a humidified atmosphere of 5% CO2 in air. Transformed mouse NPCs were cultured in suspension under neurosphere conditions at 37° C. in a humidified atmosphere of […] and 5% CO2 in DMEM F12 (Invitrogen 11320-074) supplemented with 1×B27 supplement (Invitrogen 17504-044), 5% penicillin-streptomycin (Biochrom 10378-017), 10 ng/ml EGF (R&D systems 236-EG), 10 ng/ml FGF (PeproTech 100-18B).
as §1, §2

T1 sequence (Q8NER1 whole entry): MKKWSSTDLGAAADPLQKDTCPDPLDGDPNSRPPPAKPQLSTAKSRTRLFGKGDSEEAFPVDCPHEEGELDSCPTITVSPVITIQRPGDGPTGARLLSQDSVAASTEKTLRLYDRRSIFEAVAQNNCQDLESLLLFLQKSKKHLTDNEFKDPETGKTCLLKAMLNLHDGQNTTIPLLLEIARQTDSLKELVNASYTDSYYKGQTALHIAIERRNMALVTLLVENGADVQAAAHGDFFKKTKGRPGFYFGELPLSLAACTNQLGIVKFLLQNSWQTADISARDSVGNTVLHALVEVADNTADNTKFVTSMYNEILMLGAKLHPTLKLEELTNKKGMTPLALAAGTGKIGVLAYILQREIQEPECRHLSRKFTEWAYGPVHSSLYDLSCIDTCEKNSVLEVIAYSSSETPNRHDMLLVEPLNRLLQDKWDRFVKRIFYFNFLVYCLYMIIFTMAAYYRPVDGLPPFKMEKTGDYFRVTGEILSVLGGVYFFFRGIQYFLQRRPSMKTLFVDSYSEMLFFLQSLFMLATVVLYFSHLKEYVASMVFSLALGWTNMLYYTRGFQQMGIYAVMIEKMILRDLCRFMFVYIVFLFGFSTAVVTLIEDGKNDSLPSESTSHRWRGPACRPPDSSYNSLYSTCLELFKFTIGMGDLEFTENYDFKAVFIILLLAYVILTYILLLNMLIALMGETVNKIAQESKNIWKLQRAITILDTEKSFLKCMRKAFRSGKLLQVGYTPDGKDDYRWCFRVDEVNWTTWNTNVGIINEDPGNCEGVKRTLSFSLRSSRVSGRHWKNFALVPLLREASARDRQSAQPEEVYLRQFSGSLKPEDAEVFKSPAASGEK

| reversal of calcium influx by capsazepine, CHO-TRPV1 ([1]; CPZ 10 μM pre-treatment) | GI50 ([3]; Homo sapiens) | GI50 ([4]; Homo sapiens, U373 MG) | SMILES | TRPV1 activation (calcium influx), CHO-TRPV1 [1] | inhibition of specific binding of [3H]-resiniferatoxin (RTX) ([2]; 10 μM) | resistant populations in growth curves ([3]; all 5 cultures, concentrations just slightly exceeding GI50, close to 0% cell viability) | GI50 [3] | GI50 [4] | inhibition at 10 µM ([2]; read-out: inhibition of specific binding of [3H]-resiniferatoxin (RTX)) | antiproliferative activity in the cancer cell panel ([3]; 72-hour treatment) |
| --- | --- | --- | --- | --- | --- | --- | --- | --- | --- | --- |
|  |  |  | COC(=O)/C=C/C1=CC[C@H]2C(C)(C)CCC[C@]2(C)[C@H]1C=O [Compound 5] | do not | failed to show any activity | absence of resistant populations | 20 ± 3 µM | 22 µM |  |  |
| reversible by CPZ pre-treatment | > 85 µM | > 99 µM | CC1(C)CCC[C@]2(C)[C@@H](C=O)C(C=O)=CC[C@@H]12 [Compound 1, Polygodial] | activates TRPV1 |  |  |  |  | 76% | ineffective |

From US20180237362A1, “NOVEL POLYGODIAL ANALOGS FOR THE TREATMENT OF CANCER AND OTHER PROLIFERATIVE DISEASES” (THE BOARD OF REGENTS OF THE UNIVERSITY OF TAXAS SYSTEM, priority 2015, published 2018)
